The values below come from US20020137929A1, “1 - (3-heterocyclylphenyl) isothiourea, -isourea, -guanidine and -amidine herbicidal agents” (Intellectual Property Department, BASF Aktiengesellschaft, priority 1998, published 2002).

The subject of one assay is MOOVA (Monochoria). Put plainly: Postemergence weed control under flooded paddy conditions. It counts as in vivo, Monochoria vaginalis. The following applies: postemergence weeds. A digest of the protocol: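 Weeds 3 to 5 cm tall and rice seedlings at the 1.5 to 2.5 leaf stage were flooded, with water held 1.5 to 3 cm above the soil. Compounds in 50/50 v/v aqueous/acetone went into the flood water at about 0.0313 to 0.500 kg/ha. Visual 0-9 ratings versus control were made 3 to 4 weeks later.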

The next assay deals with CYPSE (Flatsedge). Put plainly: Preemergence weed control under flooded paddy conditions. The format is in vivo, Cyperus serotinus. The following applies: rated 3-4 weeks after treatment. A digest of the protocol:
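First, seeds or propagules go into the top 0.5 cm of silt loam; next, water is held 1.5 to 3 cm over the soil; then compound (50/50 acetone/water) is pipetted into it at about 0.0313 to 0.500 kg/ha; finally plants are rated visually 0-9 after three to four weeks.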

The test system of a further assay is ECHCG (Barnyardgrass). Put plainly: Postemergence herbicidal evaluation. It counts as in vivo, Echinochloa crus-galli. The following applies: for ECHCG herbicidal rating: postemergence. A digest of the protocol:
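Scores (0–9) reflect plant stand, vigor, malformation, size, chlorosis and general appearance relative to control, read 4 to 5 weeks after treatment and averaged where tests were repeated. Application: about 0.0156–0.500 kg/ha sprayed at 40 psi onto two-week seedlings.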

The subject of assay [1] is ECHORC (Watergrass (Calif.)). Put plainly: Preemergence weed control under flooded paddy conditions. The format is in vivo, Echinochloa oryzoides. The following applies: rated 3-4 weeks after treatment. A digest of the protocol:
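Seeds or propagules sown in silt loam kept flooded 1.5-3 cm; compounds in 50/50 acetone/water pipetted into flood water at about 0.0313 to 0.500 kg/ha. Greenhouse; visual 0-9 rating versus untreated control 3-4 weeks after treatment.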

Assay [2] has as its system CHEAL (Lambsquarters, Common). Put plainly: Preemergence herbicidal evaluation. It counts as in vivo, Chenopodium album. The following applies: rated 4-5 weeks after treatment; for CHEAL rating: preemergence, 0-9 scale. A digest of the protocol:
(§1)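 Seeds were mixed with potting soil and planted on about one inch of soil, then sprayed with test compound in aqueous acetone at about 0.0156 to 0.500 kg per hectare. Plants grew under standard greenhouse care and were visually rated 0-9 against untreated controls 4-5 weeks post-treatment.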

A further assay has as its system ORYSAT (Rice, Tebonnet). Description: Preemergence herbicidal evaluation. It counts as in vivo, Oryza sativa, (L.) Tebonnet. The note with it: rated 4-5 weeks after treatment; for ORYSAT rating: preemergence, 0-9 scale. A digest of the protocol: as §1
Setting [3] is: rate 0.0313 kg/ha, 3-4 weeks after treatment.
Setting [4] is: rate 0.0625 kg/ha, 3-4 weeks after treatment.
Setting [5] is: rate 0.1250 kg/ha, 3-4 weeks after treatment.
[6] abbreviates: rate 0.2500 kg/ha, 3-4 weeks after treatment.

SMILES strings stand for the structures.

`COC(=O)CCN1C(=O)CSC1=Nc1cc(-n2c(=O)cc(C(F)(F)F)n(C)c2=O)c(F)cc1Cl` [Compound 28, Methyl 2-{{2-chloro-5-[3,6-dihydro-3-methyl-2,6-dioxo-4-(trifluoromethyl)-1(2H)-pyrimidinyl]-4-fluorophenyl}imino}-4-oxo-3-thiazolidinepropionate]: the “Herbicidal rating MOOVA” value in the assay with MOOVA (Monochoria) (setting [3]), in the assay on MOOVA (Monochoria) (setting [4]), with MOOVA (Monochoria) (setting [5]) and in the assay on MOOVA (Monochoria) (setting [6]) was 9.0 in each case. The “Herbicidal rating CYPSE” value with CYPSE (Flatsedge) (0.0313 kg/ha), in the assay with CYPSE (Flatsedge) (0.0625 kg/ha), in the assay on CYPSE (Flatsedge) (0.1250 kg/ha) and with CYPSE (Flatsedge) (0.2500 kg/ha) was 0.0 throughout. The “Postemergence herbicidal rating ECHCG” value was 0.0 in the assay on ECHCG (Barnyardgrass) (Rate 0.0158 kg/ha), 5.0 in the assay on ECHCG (Barnyardgrass) (Rate 0.0315 kg/ha) and 9.0 in the assay on ECHCG (Barnyardgrass) (Rate 0.0630 kg/ha). Besides, the “Herbicidal rating ECHORC” value in assay [1] (0.0313 kg/ha) was 0.0; in assay [1] (0.0625 kg/ha) it was 4.0; in assay [1] (0.1250 kg/ha) it was 7.0; in assay [1] (0.2500 kg/ha), 9.0. Besides, the “Preemergence herbicidal rating CHEAL” value in assay [2] (rate 0.0625 kg/ha) is listed as 0.0; in assay [2] (rate 0.1250 kg/ha), 9.0; in assay [2] (rate 0.2500 kg/ha), 9.0. Also, the “Preemergence herbicidal rating ORYSAT” value with ORYSAT (Rice, Tebonnet) (rate 0.0625 kg/ha) is listed as 0.0; in the assay with ORYSAT (Rice, Tebonnet) (rate 0.1250 kg/ha) it was 2.0; in the assay on ORYSAT (Rice, Tebonnet) (rate 0.2500 kg/ha), 8.0.
Regarding `CN1C(=O)C(CC(=O)NS(C)(=O)=O)SC1=Nc1cc(-n2c(=O)cc(C(F)(F)F)n(C)c2=O)c(F)cc1Cl` (stereo not drawn) [Compound 97, 2-{{2-Chloro-5-[3,6-dihydro-3-methyl-2,6-dioxo-4-(trifluoromethyl)-1(2H)-pyrimidinyl]-4-fluorophenyl}imino}-3-methyl-N-(methylsulfonyl)-4-oxo-5-thiazolidineacetamide], the “Herbicidal rating MOOVA” value in the assay with MOOVA (Monochoria) (Rate 0.0313 kg/ha, rated 3 to 4 weeks after treatment) amounted to 9.0; in the assay on MOOVA (Monochoria) (Rate 0.0625 kg/ha, rated 3 to 4 weeks after treatment), 9.0; with MOOVA (Monochoria) (Rate 0.1250 kg/ha, rated 3 to 4 weeks after treatment), 9.0; in the assay with MOOVA (Monochoria) (Rate 0.2500 kg/ha, rated 3 to 4 weeks after treatment), 9.0. For the same compound, the “CYPSE herbicidal effect rating” value with CYPSE (Flatsedge) (0.0313 kg/ha) was determined as 0.0; with CYPSE (Flatsedge) (0.0625 kg/ha), 0.0; in the assay on CYPSE (Flatsedge) (0.1250 kg/ha), 0.0; in the assay with CYPSE (Flatsedge) (0.2500 kg/ha), 3.0. For the same compound, the ECHCG herbicidal rating in the assay with ECHCG (Barnyardgrass) (rate 0.0156 kg/ha) was determined as 1.0; in the assay with ECHCG (Barnyardgrass) (rate 0.0313 kg/ha) it was 1.0; in the assay on ECHCG (Barnyardgrass) (rate 0.0625 kg/ha), 3.0; in the assay on ECHCG (Barnyardgrass) (rate 0.1250 kg/ha), 6.0. Besides, the “ECHORC herbicidal effect rating” value was determined as 0.0 in assay [1] (0.0313 kg/ha), 0.0 in assay [1] (0.0625 kg/ha), 2.0 in assay [1] (0.1250 kg/ha) and 3.0 in assay [1] (0.2500 kg/ha). The CHEAL rating is reported as 7.0 in assay [2] (0.1250 kg/ha), 9.0 in assay [2] (0.2500 kg/ha) and 9.0 in assay [2] (0.5000 kg/ha). Also, the ORYSAT rating with ORYSAT (Rice, Tebonnet) (0.1250 kg/ha) came to 0.0; in the assay on ORYSAT (Rice, Tebonnet) (0.2500 kg/ha), 1.0; with ORYSAT (Rice, Tebonnet) (0.5000 kg/ha), 1.0.
Consider `CCOC(=O)CN1C(=O)CSC1=Nc1cc(N2C(=O)C3=C(CCCC3)C2=O)c(F)cc1Cl` [Compound 47, Ethyl 2-{[2-chloro-5-(1-cyclohexene-1,2-dicarboximido)-4-fluorophenyl]imino}-4-oxo-3-thiazolidineacetate], for which the “Herbicidal rating MOOVA” value is 5.0 in the assay with MOOVA (Monochoria) (setting [3]), 6.0 in the assay on MOOVA (Monochoria) (setting [4]), 9.0 in the assay with MOOVA (Monochoria) (setting [5]) and 9.0 with MOOVA (Monochoria) (setting [6]). Further, the “Herbicidal rating CYPSE” value in the assay on CYPSE (Flatsedge) (0.0313 kg/ha), in the assay on CYPSE (Flatsedge) (0.0625 kg/ha), in the assay with CYPSE (Flatsedge) (0.1250 kg/ha) and in the assay with CYPSE (Flatsedge) (0.2500 kg/ha) was 0.0 in each case. The “Postemergence herbicidal rating ECHCG” value in the assay with ECHCG (Barnyardgrass) (Rate 0.0156 kg/ha), in the assay on ECHCG (Barnyardgrass) (Rate 0.0313 kg/ha) and in the assay on ECHCG (Barnyardgrass) (Rate 0.0625 kg/ha) was 0.0 each time. For the same compound, the “Herbicidal rating ECHORC” value is reported as 0.0 in assay [1] (0.0313 kg/ha), 2.0 in assay [1] (0.0625 kg/ha), 4.0 in assay [1] (0.1250 kg/ha) and 7.0 in assay [1] (0.2500 kg/ha). Further, the “Preemergence herbicidal rating CHEAL” value in assay [2] (rate 0.0156 kg/ha), in assay [2] (rate 0.0313 kg/ha), in assay [2] (rate 0.0625 kg/ha), in assay [2] (rate 0.1250 kg/ha) and in assay [2] (rate 0.2500 kg/ha) was 9.0 each time. Also, the “Preemergence herbicidal rating ORYSAT” value amounted to 0.0 with ORYSAT (Rice, Tebonnet) (rate 0.0156 kg/ha); 0.0 with ORYSAT (Rice, Tebonnet) (rate 0.0313 kg/ha); 0.0 in the assay on ORYSAT (Rice, Tebonnet) (rate 0.0625 kg/ha); 0.0 in the assay with ORYSAT (Rice, Tebonnet) (rate 0.1250 kg/ha); 0.0 in the assay with ORYSAT (Rice, Tebonnet) (rate 0.2500 kg/ha).
With `CCOC(=O)CN1C(=O)C(CC)SC1=Nc1cc(-n2c(=O)cc(C(F)(F)F)n(C)c2=O)c(F)cc1Cl` (stereo not drawn) [Compound 13, Ethyl 2-{{2-chloro-5-[3,6-dihydro-3-methyl-2,6-dioxo-4-(trifluoromethyl)-1(2H)-pyrimidinyl]-4-fluorophenyl}imino}-5-ethyl-4-oxo-3-thiazolidineacetate], the “Herbicidal rating MOOVA” value with MOOVA (Monochoria) (setting [3]), in the assay with MOOVA (Monochoria) (setting [4]), with MOOVA (Monochoria) (setting [5]) and in the assay with MOOVA (Monochoria) (setting [6]) was 9.0 each time. For the same compound, the “Herbicidal rating CYPSE” value in the assay with CYPSE (Flatsedge) (0.0156 kg/ha), with CYPSE (Flatsedge) (0.0313 kg/ha), in the assay on CYPSE (Flatsedge) (0.0625 kg/ha), in the assay with CYPSE (Flatsedge) (0.1250 kg/ha) and in the assay with CYPSE (Flatsedge) (0.2500 kg/ha) was 0.0 each time. Moreover, the ECHCG herbicidal rating with ECHCG (Barnyardgrass) (rate 0.0156 kg/ha) stood at 2.0; with ECHCG (Barnyardgrass) (rate 0.0313 kg/ha), 2.0; with ECHCG (Barnyardgrass) (rate 0.0625 kg/ha) it was 3.0; in the assay on ECHCG (Barnyardgrass) (rate 0.1250 kg/ha) it was 7.0. The “Herbicidal rating ECHORC” value in assay [1] (0.0156 kg/ha) is recorded as 3.5; in assay [1] (0.0313 kg/ha), 5.5; in assay [1] (0.0625 kg/ha), 7.0; in assay [1] (0.1250 kg/ha) it was 8.0; in assay [1] (0.2500 kg/ha) it was 9.0. In addition, the “CHEAL preemergence herbicidal rating” value in assay [2] (rate 0.0156 kg/ha), in assay [2] (rate 0.0313 kg/ha), in assay [2] (rate 0.0625 kg/ha), in assay [2] (rate 0.1250 kg/ha) and in assay [2] (rate 0.2500 kg/ha) was 9.0 in each case. In addition, the “ORYSAT preemergence herbicidal rating” value is 0.0 in the assay on ORYSAT (Rice, Tebonnet) (rate 0.0156 kg/ha); 0.0 with ORYSAT (Rice, Tebonnet) (rate 0.0313 kg/ha); 0.0 with ORYSAT (Rice, Tebonnet) (rate 0.0625 kg/ha); 3.0 in the assay with ORYSAT (Rice, Tebonnet) (rate 0.1250 kg/ha); 4.0 in the assay on ORYSAT (Rice, Tebonnet) (rate 0.2500 kg/ha).
